Source: PubChem BioAssay AID264 (DTP/NCI, 2004)
Where “and” joins values, the source holds several entries; their conditions need not be identical. Equal values may be shown once. Records with an inconclusive call do not appear.

Test system: nude mice, LX-1 lung xenograft intrarenal, tumor weight T/C
Test: NCI In Vivo Anticancer Drug Screen. Data for tumor model Human Lung LX-1 Xenograft (intrarenal inoculation) in NU/NU Swiss (nude) mice
Details: endpoint: mean tumor weight change, higher = larger tumour
Outline: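 Activity was scored by measuring tumors in treated animals and in vehicle controls, then reporting the treated result as a fraction of the control result.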

[1] = dose: 25.0 mg/kg/injection, schedule: Q01DX010 (sc), vehicle: saline
[2] = dose: 50.0 mg/kg/injection, schedule: Q01DX010 (sc), vehicle: saline
[3] = dose: 100.0 mg/kg/injection, schedule: Q01DX010 (sc), vehicle: saline
[4] = dose: 12.5 mg/kg/injection, schedule: Q01DX010 (sc), vehicle: Klucel (hydroxypropylcellulose) (HPC)
[5] = dose: 25.0 mg/kg/injection, schedule: Q01DX010 (sc), vehicle: Klucel (hydroxypropylcellulose) (HPC)
[6] = dose: 100.0 mg/kg/injection, schedule: Q01DX010 (sc), vehicle: Klucel (hydroxypropylcellulose) (HPC)
[7] = dose: 100.0 mg/kg/injection, schedule: Q04DX003 (sc), vehicle: saline with Tween-80
[8] = dose: 200.0 mg/kg/injection, schedule: Q04DX003 (sc), vehicle: saline with Tween-80
[9] = dose: 800.0 mg/kg/injection, schedule: Q04DX003 (sc), vehicle: saline with Tween-80
[10] = dose: 25.0 mg/kg/injection, schedule: Q04DX003 (sc), vehicle: saline with Tween-80
[11] = dose: 75.0 mg/kg/injection, schedule: Q04DX003 (sc), vehicle: saline
[12] = dose: 150.0 mg/kg/injection, schedule: Q04DX003 (sc), vehicle: saline
[13] = dose: 300.0 mg/kg/injection, schedule: Q04DX003 (sc), vehicle: saline
[14] = dose: 600.0 mg/kg/injection, schedule: Q04DX003 (sc), vehicle: saline
[15] = dose: 0.25 mg/kg/injection, schedule: Q01DX010 (sc), vehicle: saline
[16] = dose: 0.5 mg/kg/injection, schedule: Q01DX010 (sc), vehicle: saline
[17] = dose: 1.0 mg/kg/injection, schedule: Q01DX010 (sc), vehicle: saline

`O=S(=O)(O)O.[NH-]C1CCCCC1[NH-].[Pt+2]` (stereo not drawn) was tested, and the T/C (dose: 0.63 mg/kg/injection, schedule: Q01DX010 (sc), vehicle: dextrose) was 85 % of control, the T/C (dose: 1.25 mg/kg/injection, schedule: Q01DX010 (sc), vehicle: dextrose) was 90 % of control and the T/C (dose: 2.5 mg/kg/injection, schedule: Q01DX010 (sc), vehicle: dextrose) was 82 % of control.

`C=CS(=O)(=O)c1ccccc1` was tested, and the T/C [1] was 57 % of control, the T/C [2] was 65 % of control and the T/C [3] was 29 % of control.

`O=C(O)c1c2c(nc3ccccc13)Cc1ccccc1-2` was tested, and the T/C (dose: 100.0 mg/kg/injection, schedule: Q01DX010 (sc), vehicle: water) was 39 % of control and the T/C (dose: 200.0 mg/kg/injection, schedule: Q01DX010 (sc), vehicle: water) was 33 % of control.

`CS(=O)(=O)OCCN(CCOS(C)(=O)=O)c1ccc(C=Nc2ccc(-c3csc(COc4ccccc4)n3)cc2)cc1` was tested, and the T/C [4] was 52 % of control, the T/C [5] was 70 % of control and the T/C [6] was 106 % of control.

`COc1cc2c[n+](C)c3c4cc5c(cc4ccc3c2cc1OC)OCO5` was tested, and the T/C [7] was 157 % of control, the T/C [8] was 92 % of control and the T/C [9] was 109 % of control.

`C=C1C(=O)OC2CC(C)C3C4OC4C(O)C3(C)C(O)C12` (stereo not drawn) was tested, and the T/C [7] was 97 % of control and the T/C [9] was 75 % of control.

`C[CH2][Pb]([CH2]C)([CH2]C)[O]C(=O)COc1ccccc1` was tested, and the T/C (dose: 9.0 mg/kg/injection, schedule: Q04DX003 (sc), vehicle: saline with Tween-80) was 47 % of control and the T/C (dose: 18.0 mg/kg/injection, schedule: Q04DX003 (sc), vehicle: saline with Tween-80) was 47 % of control.

With `C=CC(=O)NCNC(=O)C=C` the T/C [1] was 88 % of control, the T/C [2] was 103 % of control and the T/C [3] was 64 % of control.

For `Cc1cc(SCC(=O)c2ccc(Br)cc2)cc(C)[o+]1`, the T/C [2] was 111 % of control and the T/C (dose: 200.0 mg/kg/injection, schedule: Q01DX010 (sc), vehicle: saline) was 116 % of control.

For `CC(C)(C)N1CC1CNC(=O)C(=O)NCC1CN1C(C)(C)C` (stereo not drawn), the T/C (dose: 6.25 mg/kg/injection, schedule: Q04DX003 (sc), vehicle: saline with Tween-80) was 87 % of control, the T/C (dose: 12.5 mg/kg/injection, schedule: Q04DX003 (sc), vehicle: saline with Tween-80) was 76 % of control and the T/C [10] was 70 % of control.

`CCN(CC)CCOC(=O)Cc1cccc2c(=O)cc(-c3ccccc3)oc12` was tested, and the T/C [7] was 112 % of control and the T/C [8] was 44 % of control.

`C[C@]12CCC(=O)C=C1CC[C@@H]1[C@@H]2C(=O)C[C@@]2(C)[C@H]1CC[C@]2(O)C(=O)CO` was tested, and the T/C (dose: 300.0 mg/kg/injection, schedule: Q04DX003 (sc), vehicle: Klucel (hydroxypropylcellulose) (HPC)) was 38 % of control, the T/C (dose: 600.0 mg/kg/injection, schedule: Q04DX003 (sc), vehicle: Klucel (hydroxypropylcellulose) (HPC)) was 34 % of control and the T/C (dose: 1200.0 mg/kg/injection, schedule: Q04DX003 (sc), vehicle: Klucel (hydroxypropylcellulose) (HPC)) was 52 % of control.

`COC1C(OC(=O)/C=C/C=C/C=C/C=C/C(=O)O)CCC2(CO2)C1C1(C)OC1CC=C(C)C` (stereo not drawn) was tested, and the T/C [11] was 76 % of control, the T/C [12] was 81 % of control and the T/C [13] was 75 % of control. The T/C [14] was 66 % of control.

With `O=NNc1ccccn1` the T/C (dose: 0.13 mg/kg/injection, schedule: Q01DX010 (sc), vehicle: saline) was 120 % of control, the T/C [15] was 309 % of control and the T/C [16] was 211 % of control. The T/C [17] was 105 % of control, the T/C (dose: 32.0 mg/kg/injection, schedule: Q01DX010 (sc), vehicle: saline) was 46 % of control and the T/C (dose: 64.0 mg/kg/injection, schedule: Q01DX010 (sc), vehicle: saline) was 30 % of control.

In the case of `CCN(CC)CCNc1ccc(C)c2sc3ccc(O)cc3c(=O)c12`, the T/C (dose: 300.0 mg/kg/injection, schedule: Q04DX003 (sc), vehicle: saline with Tween-80) is reported as 71 % of control, the T/C (dose: 600.0 mg/kg/injection, schedule: Q04DX003 (sc), vehicle: saline with Tween-80) is reported as 98 % of control and the T/C (dose: 1200.0 mg/kg/injection, schedule: Q04DX003 (sc), vehicle: saline with Tween-80) is reported as 83 % of control. The T/C (dose: 2400.0 mg/kg/injection, schedule: Q04DX003 (sc), vehicle: saline with Tween-80) was 52 % of control.

In the case of `CC12CCC3C(CCC4CC(OC(=O)Cc5ccc(N(CCCl)CCCl)cc5)CCC43C)C1CCC(=O)N2` (stereo not drawn), the T/C [10] is reported as 43 % of control and 66 % of control and the T/C [8] is reported as 8 % of control and 9 % of control.

`CN=S(=O)(OCCCCCOS(=O)(=NC)c1ccccc1)c1ccccc1` (stereo not drawn) was tested, and the T/C [8] was 36 % of control, the T/C (dose: 400.0 mg/kg/injection, schedule: Q04DX003 (sc), vehicle: saline with Tween-80) was 77 % of control and the T/C [9] was 57 % of control.

In the case of `Cc1cn(C2CC(O)C(CO)O2)c(=O)[nH]c1=O` (stereo not drawn), the T/C (dose: 800.0 mg/kg/injection, schedule: Q04DX003 (sc), vehicle: saline) is reported as 94 % of control, the T/C (dose: 1600.0 mg/kg/injection, schedule: Q04DX003 (sc), vehicle: saline) is reported as 70 % of control and the T/C (dose: 3200.0 mg/kg/injection, schedule: Q04DX003 (sc), vehicle: saline) is reported as 71 % of control. The T/C (dose: 6400.0 mg/kg/injection, schedule: Q04DX003 (sc), vehicle: saline) was 61 % of control.

For `CCCCc1ccc2nc(NC(=O)OC)[nH]c2c1`, the T/C (dose: 100.0 mg/kg/injection, schedule: Q01DX010 (sc), vehicle: saline with Tween-80) was 53 % of control and 78 % of control and the T/C (dose: 1600.0 mg/kg/injection, schedule: Q01DX010 (sc), vehicle: saline with Tween-80) was 84 % of control.

For `N#C[C@H](OC1OC(COC2OC(CO)C(O)C(O)C2O)C(O)C(O)C1O)c1ccccc1` (stereo partly drawn), the T/C (dose: 900.0 mg/kg/injection, schedule: Q04DX003 (sc), vehicle: suspension in saline) was 82 % of control and the T/C (dose: 1800.0 mg/kg/injection, schedule: Q04DX003 (sc), vehicle: suspension in saline) was 123 % of control.

In the case of `C=CCNc1ccc(C)cc1`, the T/C [4] is reported as 98 % of control, the T/C [5] is reported as 171 % of control and the T/C [6] is reported as 107 % of control. The T/C (dose: 200.0 mg/kg/injection, schedule: Q01DX010 (sc), vehicle: Klucel (hydroxypropylcellulose) (HPC)) was 42 % of control and the T/C (dose: 400.0 mg/kg/injection, schedule: Q01DX010 (sc), vehicle: Klucel (hydroxypropylcellulose) (HPC)) was 72 % of control.

With `COC(=O)C12OCC34C(CC5C(C)=CC(=O)C(O)C5(C)C3C(O)C1O)OC(=O)C(OC(=O)CC(C)C)C24` (stereo not drawn) the T/C (dose: 3.0 mg/kg/injection, schedule: Q04DX003 (sc), vehicle: saline + alcohol) was 48 % of control.

For `CCCCNC(C)[C@]1(O)Cc2c(O)c3c(c(O)c2[C@@H](OC2CC(N)C(O)C(C)O2)C1)C(=O)c1c(OC)cccc1C3=O` (stereo partly drawn), the T/C (dose: 6.25 mg/kg/injection, schedule: Q01DX010 (sc), vehicle: saline) was 69 % of control and the T/C (dose: 12.5 mg/kg/injection, schedule: Q01DX010 (sc), vehicle: saline) was 68 % of control.

In the case of `Cc1ccccc1CN1C2=NCCN2C(=O)C2=C1CCN(S(=O)(=O)c1ccc(Cl)c(S(N)(=O)=O)c1)C2`, the T/C [12] is reported as 77 % of control, the T/C [13] is reported as 96 % of control and the T/C [14] is reported as 155 % of control.

`COc1cc([C@@H]2c3cc4c(c(O)c3C[C@H]3COC(=O)[C@@H]32)OCO4)cc(OC)c1OC` was tested, and the T/C [15] was 91 % of control, the T/C [16] was 50 % of control and the T/C [17] was 58 % of control. For the same molecule, the T/C (dose: 2.0 mg/kg/injection, schedule: Q01DX010 (sc), vehicle: saline) was 71 % of control and 73 % of control, the T/C (dose: 4.0 mg/kg/injection, schedule: Q01DX010 (sc), vehicle: saline) was 117 % of control and the T/C (dose: 8.0 mg/kg/injection, schedule: Q01DX010 (sc), vehicle: saline) was 168 % of control.

For `OCC12COCN1COC2`, the T/C [11] was 102 % of control and the T/C [12] was 115 % of control.

In the case of `CC(C)CCCCCCCCCCCCC(=O)NCC(=O)NC1C(C)OC(Nc2ncnc3nc[nH]c23)C(O)C1O` (stereo not drawn), the T/C (dose: 4.0 mg/kg/injection, schedule: Q01DX010 (sc), vehicle: distilled water + Tween-80) is reported as 31 % of control and 33 % of control, the T/C (dose: 8.0 mg/kg/injection, schedule: Q01DX010 (sc), vehicle: distilled water + Tween-80) is reported as 24 % of control and the T/C (dose: 32.0 mg/kg/injection, schedule: Q01DX010 (sc), vehicle: distilled water + Tween-80) is reported as 28 % of control.

For `Ic1ncnc2c1ncn2C1CCCO1` (stereo not drawn), the T/C (dose: 200.0 mg/kg/injection, schedule: Q04DX003 (sc), vehicle: Klucel (hydroxypropylcellulose) (HPC)) was 168 % of control, the T/C (dose: 800.0 mg/kg/injection, schedule: Q04DX003 (sc), vehicle: Klucel (hydroxypropylcellulose) (HPC)) was 107 % of control and the T/C (dose: 1600.0 mg/kg/injection, schedule: Q04DX003 (sc), vehicle: Klucel (hydroxypropylcellulose) (HPC)) was 41 % of control.
